Assay results taken from publication PMC6297231 (Nature Communications, 2018).
Where two headings read alike, the source gives them in different places.

Tests used:
MWCL1 = assay: Cell viability assay; type: cell-based; conditions: 24 h; MWCL1 (NHL); read-out: AZD5991 24h GI50
Method: (§1) Cells were plated at 3000 cells/well in 384-well white plates in corresponding cell growth media. […] Caspase-3/7 activation was subsequently determined using a Caspase-Glo 3/7 Reagent (Promega) and viability was assayed using the CellTiter-Glo Reagent (Promega) as described in manufacturer’s instructions. Dose–response curves for caspase-3/7 activation and viability were plotted and analyzed (including EC50 and GI50 determination) using GraphPad Prism.

RI1 = assay: Cell viability assay; type: cell-based; conditions: Ri-1, 24 h; RI1 (NHL); read-out: AZD5991 24h GI50
Method: as §1

Kasumi1 = assay: Cell viability assay; type: cell-based; conditions: Homo sapiens, Kasumi 1, 24 h; Kasumi1 (AML); read-out: AZD5991 24h GI50
Method: as §1

Nomo1 = assay: Caspase-3/7 activation assay; type: cell-based; conditions: Homo sapiens, NOMO-1, 6 h
Method: as §1

OCILY1 = assay: Cell viability assay; type: cell-based; conditions: Homo sapiens, OCI-Ly1, 24 h; OCILY1 (NHL); read-out: AZD5991 24h GI50
Method: as §1

[1] = tested on: murine Eµ-Myc lymphoma tumors; assay: GFP-labeled Eµ-Myc lymphoma model; type: in vivo, mice; conditions: 100 mg kg^−1 on day 3 and day 10 post-transplantation
Text: Eµ-Myc: These studies complied with all ethical regulations in accordance with the guidelines established by the Institutional Animal Experimentation Ethics Committee, Peter MacCallum Cancer Center. Non-irradiated C57BL/6 mice between 6 and 8 weeks old were transplanted by tail vein injection with 100,000 GFP-labeled Eμ-Myc lymphoma cells[39] harvested from lymph nodes of a syngeneic mouse. Treatment started 3 days after implantation. AZD5991 and vehicle were formulated and administered as mentioned above. Peripheral blood was collected by retro-orbital sampling 11 days post-transplantation and GFP-expressing leukemic cells assessed by flow cytometry using a BD FACSCanto II cytometer and data analyzed using Flowlogic software. Gating strategy is shown in Supplementary Figure 8.

Namalwa = assay: Cell viability assay; type: cell-based; conditions: 24 h; Namalwa (NHL); read-out: AZD5991 24h GI50
Method: as §1

VAL = assay: Cell viability assay; type: cell-based; conditions: 24 h; VAL (NHL); read-out: AZD5991 24h GI50
Method: as §1

[2] = tested on: Eμ-Myc lymphoma cells stably expressing human Bcl-2; assay: Apoptosis induction in Eμ-Myc lymphoma cells; conditions: overexpression of Bcl-2, 24 h
Text: The retroviral plasmids to express human Bcl-2 family members in murine Eμ-Myc lymphoma cells are MSCV-hMCL-1-GFP, MSCV-hBCL-2-GFP, MSCV-hBCL-XL-GFP, MSCV-hBFL-1/A1-GFP, and MSCV-hBCL-w-GFP. To produce viruses, constructs of interest were co-transfected into HEK293T cells with the plasmid encoding the packaging viruses (p-CL-AMPHO provided by Phillip Darcy from Peter MacCallum Cancer Center, Melbourne, Australia) using standard calcium phosphate transient transfection technique. The retroviruses were harvested, filtered and used to infect target cells following standard procedures.
Samples were then centrifuged, washed twice with PBS and analyzed by flow cytometry in a BD LSRFortessa. FACSDiva software was used for data collection and FlowJo software for data analysis.

NB4 = assay: Caspase-3/7 activation assay; type: cell-based; conditions: Homo sapiens, NB-4, 6 h
Method: as §1

MDAMB231 = assay: Cell viability assay; type: cell-based; conditions: Homo sapiens, MDA-MB-231, 24 h; MDAMB231 (Breast); read-out: AZD5991 24h GI50
Method: as §1

OCIAML5 = assay: Caspase-3/7 activation assay; type: cell-based; conditions: Homo sapiens, OCI-AML-5, 6 h
Method: as §1

DOHH2 = assay: Cell viability assay; type: cell-based; conditions: Homo sapiens, DOHH-2, 24 h; DOHH2 (NHL); read-out: AZD5991 24h GI50
Method: as §1

OE21 = assay: Cell viability assay; type: cell-based; conditions: 24 h; OE21 (Others); read-out: AZD5991 24h GI50
Method: as §1

EJM = assay: Cell viability assay; type: cell-based; conditions: Homo sapiens, 24 h; EJM (MM); read-out: AZD5991 24h GI50
Method: as §1

ME1 = assay: Cell viability assay; type: cell-based; conditions: ME-1, 24 h; ME1 (AML); read-out: AZD5991 24h GI50
Method: as §1

SNU16 = assay: Cell viability assay; type: cell-based; conditions: Homo sapiens, SNU-16, 24 h; SNU16 (GI); read-out: AZD5991 24h GI50
Method: as §1

MINO = assay: Cell viability assay; type: cell-based; conditions: Homo sapiens, 24 h; MINO (NHL); read-out: AZD5991 24h GI50
Method: as §1

MOLP8 = assay: Cell viability assay; type: cell-based; conditions: Homo sapiens, MOLP-8, 24 h; MOLP8 (MM); read-out: AZD5991 24h GI50
Sudhl2 = assay: Cell viability assay; type: cell-based; conditions: Homo sapiens, SU-DHL-2, 24 h; Sudhl2 (NHL); read-out: AZD5991 24h GI50
Method: as §1

A253 = assay: Cell viability assay; type: cell-based; conditions: Homo sapiens, 24 h; A253 (Others); read-out: AZD5991 24h GI50
Method: as §1

H1734 = assay: Cell viability assay; type: cell-based; conditions: Homo sapiens, NCI-H1734, 24 h; H1734 (Lung); read-out: AZD5991 24h GI50
Method: as §1

TMD8 = assay: Cell viability assay; type: cell-based; conditions: Homo sapiens, 24 h; TMD8 (NHL); read-out: AZD5991 24h GI50
Method: as §1

Sudhl8 = assay: Cell viability assay; type: cell-based; conditions: Homo sapiens, SU-DHL-8, 24 h; Sudhl8 (NHL); read-out: AZD5991 24h GI50
Method: as §1

MM1S = assay: Cell viability assay; type: cell-based; conditions: Homo sapiens, MM1.S, 24 h; MM1S (MM); read-out: AZD5991 24h GI50
Method: as §1

KG1a = assay: Cell viability assay; type: cell-based; conditions: Homo sapiens, KG-1a, 24 h; KG1a (AML); read-out: AZD5991 24h GI50
Method: as §1

MONOMAC6 = assay: Cell viability assay; type: cell-based; conditions: Homo sapiens, MONO-MAC-6, 24 h; MONOMAC6 (AML); read-out: AZD5991 24h GI50
Method: as §1

MEWO = assay: Cell viability assay; type: cell-based; conditions: Homo sapiens, 24 h; MEWO (Skin); read-out: AZD5991 24h GI50
Method: as §1

H358 = assay: Cell viability assay; type: cell-based; conditions: Homo sapiens, NCI-H358, 24 h; H358 (Lung); read-out: AZD5991 24h GI50
Method: as §1

With `Cc1c2c(nn1C)CSCc1cc(n(C)n1)CSc1cc(c3ccccc3c1)OCCCc1c(C(=O)O)n(C)c3c-2c(Cl)ccc13` (atropisomer, axis not shown; (Ra)) [(Ra)-7] the GI50 (MWCL1) was 1.65 µM, the GI50 (RI1) was 28.2 µM and the GI50 (Kasumi1) was 0.133 µM. The EC50 (Nomo1; read-out: 6h caspase EC50, NOMO1, single agent) was 0.0325 µM, the EC50 (Nomo1; read-out: AZD5991 6h EC50, Nomo1 (AML), caspase 3/7 activation) was 0.047 µM and the GI50 (OCILY1) was 0.561 µM. For the same compound, the “survival vs. vehicle control group” value [1] was “prolonged survival”, the “leukemic cells in peripheral blood” value ([1]; day 11) was “depletion of leukemic cells from peripheral blood” and the GI50 (Namalwa) was 0.039 µM. For the same compound, the GI50 (VAL) was 0.102 µM, the apoptosis-inducing activity [2] was “blocked” and the EC50 (NB4; read-out: 6h caspase EC50, NB4, single agent) was 0.201 µM. For the same compound, the EC50 (NB4; read-out: AZD5991 6h EC50, NB4 (AML), caspase 3/7 activation) was 0.347 µM, the GI50 (MDAMB231) was > 30 µM and the EC50 (OCIAML5; read-out: 6h caspase EC50, OCIAML5, single agent) was > 0.333 µM. The EC50 (OCIAML5; read-out: AZD5991 6h EC50, OCIAML5 (AML), caspase 3/7 activation) was > 30 µM, the GI50 (DOHH2) was 0.065 µM and the GI50 (OE21) was > 30 µM. It also gave a GI50 (EJM) of 0.105 µM, a GI50 (ME1) of 0.22 µM and a GI50 (SNU16) of 0.139 µM. For the same compound, the GI50 (MINO) was 0.149 µM, the GI50 (MOLP8) was 0.052 µM and the GI50 (Sudhl2) was 0.585 µM. The GI50 (A253) was > 30 µM, the GI50 (H1734) was 13.8 µM and the GI50 (TMD8) was 0.535 µM. The GI50 (Sudhl8) was 0.198 µM, the GI50 (MM1S) was 0.348 µM and the GI50 (KG1a) was 1.43 µM. The GI50 (MONOMAC6) was 0.226 µM, the GI50 (MEWO) was 7.67 µM and the GI50 (H358) was 4.24 µM.
